Holding throughout (type): biochemical
What all share (conditions): 5 min 37° C., then iodoacetic acid

For test [1], the target named is T1, F II (Homo sapiens, UniProt P00734).
T1 construct: from tissue; host or cells: human citrated blood plasma
Description: Coagulation factor II activity in plasma after reducing agent + iodoacetic acid. Here is the method: (§1) Human blood with anti-coagulating agent (9 parts blood+1 part 3.8% trisodium citrate) is centrifuged and the following tests with plasma were carried out:
(§2) The plasma is divided into 8 ml portions, which are preheated at 37° C. for 5 min. DTT is added in different concentrations, see table 1 below, and is incubated for 5 min. at 37° C. Then iodoacetic acid, 3 mol per mol DTT, is added, and incubation takes place for 15 min. at 37° C. The plasma samples are distributed in portions of about 0.2 ml and are immediately frozen at -70° C. Testing of different coagulation factors is made in known manner.
(§3) The plasma is divided into 8 ml portions, which are preheated at 37° C. for 5 min. DTE is added in different concentrations (see table 2), and is incubated for 5 minutes at 37° C. Then, iodoacetic acid (3 mol per mol DTE) is added and incubation is carried out for 15 minutes at 37° C. The plasma samples are distributed in portions of about 0.2 ml and are immediately frozen at -70° C. Testing of different coagulation factors is made in a manner known per se.
(§4) The plasma is divided into 8 ml portions, which are preheated at 37° C. for 5 minutes. Lipoic acid is added in different concentrations (see table 3), and is incubated for 5 minutes at 37° C. Then, iodoacetic acid (3 mol per mol lipoic acid) is added and incubation is carried out for 15 minutes at 37° C. The plasma samples are distributed in portions of about 0.2 ml and are immediately frozen at -70° C. Testing of different coagulation factors is made in a manner known per se.
(§5) The plasma is divided into 8 ml portions, which are preheated at 37° C. for 5 minutes. Mercaptoethanol is added in different concentrations (see table 4), and is incubated for 5 minutes at 37° C. Then, iodoacetic acid (3 mol per mol mercaptoethanol) is added and incubation is carried out for 15 minutes at 37° C. The plasma samples are distributed in portions of about 0.2 ml and are immediately frozen at -70° C. Testing of different coagulation factors is made in a manner known per se.
(§6) The plasma is divided into 8 ml portions, which are preheated at 37° C. for 5 minutes. Potassium borohydride is added in different concentrations (see table 5, and is incubated for 5 minutes at 37° C. Then, iodoacetic acid (3 mol per mol potassium borohydride) is added and incubation is carried out for 15 minutes at 37° C. The plasma samples are distributed in portions of about 0.2 ml and are immediately frozen at -70° C. Testing of different coagulation factors is made in a manner known per se.

Test [2] deals with T2, F V (Homo sapiens, UniProt P12259).
T2 construct: from tissue; host or cells: human citrated blood plasma
Description: Coagulation factor V activity in plasma after reducing agent + iodoacetic acid. Here is the method: as §1, §2, §3, §4, §5, §6

The target of test [3] is T3, F IX (Homo sapiens, UniProt P00740).
T3 construct: from tissue; host or cells: human citrated blood plasma
As to the kind of experiment: Coagulation factor IX activity in plasma after reducing agent + iodoacetic acid. Here is the method:
as §1, §2, §3, §4, §5, §6

The target of test [4] is T4, F X (Homo sapiens, UniProt P00742).
T4 construct: from tissue; host or cells: human citrated blood plasma
As to the kind of experiment: Coagulation factor X activity in plasma after reducing agent + iodoacetic acid. Here is the method: as §1, §2, §3, §4, §5, §6

The mark [5] stands for this setting: human, 0.1 mg reducing agent/ml plasma (sample C).
Setting [6] is: human, 0.6 mg reducing agent/ml plasma.
[7] abbreviates: human, Table 1 sample D, 0.1 mg DTT/ml plasma.
[8] abbreviates: 0.1 mg reducing agent/ml plasma (sample C).
The mark [9] stands for this setting: plasma + 0.14 mg reducing agent.
Setting [10] is: plasma + 0.28 mg reducing agent.

SMILES strings stand for the structures.

T3 sequence (P00740 47-461): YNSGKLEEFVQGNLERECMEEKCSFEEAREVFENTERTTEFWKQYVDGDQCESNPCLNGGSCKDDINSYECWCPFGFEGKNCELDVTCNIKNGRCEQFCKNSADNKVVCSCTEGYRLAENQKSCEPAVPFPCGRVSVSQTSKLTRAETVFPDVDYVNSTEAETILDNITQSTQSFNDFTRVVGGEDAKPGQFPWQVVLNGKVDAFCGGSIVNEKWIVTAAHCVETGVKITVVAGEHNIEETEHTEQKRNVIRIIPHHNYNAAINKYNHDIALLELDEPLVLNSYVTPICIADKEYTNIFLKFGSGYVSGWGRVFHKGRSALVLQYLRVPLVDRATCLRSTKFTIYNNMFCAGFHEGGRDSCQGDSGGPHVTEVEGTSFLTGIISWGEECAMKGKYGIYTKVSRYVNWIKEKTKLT
T4 sequence (P00742 235-488 limits assumed): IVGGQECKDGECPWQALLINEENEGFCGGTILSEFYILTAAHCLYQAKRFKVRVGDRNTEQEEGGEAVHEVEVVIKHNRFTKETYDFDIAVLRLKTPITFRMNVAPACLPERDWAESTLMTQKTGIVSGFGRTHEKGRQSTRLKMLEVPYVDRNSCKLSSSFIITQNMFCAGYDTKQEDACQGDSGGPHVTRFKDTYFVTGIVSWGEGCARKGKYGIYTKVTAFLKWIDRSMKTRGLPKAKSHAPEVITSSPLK
T4 sequence (P00742 41-179 limits assumed): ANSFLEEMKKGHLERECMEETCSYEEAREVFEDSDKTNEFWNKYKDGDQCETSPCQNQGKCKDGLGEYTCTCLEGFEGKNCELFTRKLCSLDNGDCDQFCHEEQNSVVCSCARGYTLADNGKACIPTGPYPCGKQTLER
T2 sequence (P12259 29-2224): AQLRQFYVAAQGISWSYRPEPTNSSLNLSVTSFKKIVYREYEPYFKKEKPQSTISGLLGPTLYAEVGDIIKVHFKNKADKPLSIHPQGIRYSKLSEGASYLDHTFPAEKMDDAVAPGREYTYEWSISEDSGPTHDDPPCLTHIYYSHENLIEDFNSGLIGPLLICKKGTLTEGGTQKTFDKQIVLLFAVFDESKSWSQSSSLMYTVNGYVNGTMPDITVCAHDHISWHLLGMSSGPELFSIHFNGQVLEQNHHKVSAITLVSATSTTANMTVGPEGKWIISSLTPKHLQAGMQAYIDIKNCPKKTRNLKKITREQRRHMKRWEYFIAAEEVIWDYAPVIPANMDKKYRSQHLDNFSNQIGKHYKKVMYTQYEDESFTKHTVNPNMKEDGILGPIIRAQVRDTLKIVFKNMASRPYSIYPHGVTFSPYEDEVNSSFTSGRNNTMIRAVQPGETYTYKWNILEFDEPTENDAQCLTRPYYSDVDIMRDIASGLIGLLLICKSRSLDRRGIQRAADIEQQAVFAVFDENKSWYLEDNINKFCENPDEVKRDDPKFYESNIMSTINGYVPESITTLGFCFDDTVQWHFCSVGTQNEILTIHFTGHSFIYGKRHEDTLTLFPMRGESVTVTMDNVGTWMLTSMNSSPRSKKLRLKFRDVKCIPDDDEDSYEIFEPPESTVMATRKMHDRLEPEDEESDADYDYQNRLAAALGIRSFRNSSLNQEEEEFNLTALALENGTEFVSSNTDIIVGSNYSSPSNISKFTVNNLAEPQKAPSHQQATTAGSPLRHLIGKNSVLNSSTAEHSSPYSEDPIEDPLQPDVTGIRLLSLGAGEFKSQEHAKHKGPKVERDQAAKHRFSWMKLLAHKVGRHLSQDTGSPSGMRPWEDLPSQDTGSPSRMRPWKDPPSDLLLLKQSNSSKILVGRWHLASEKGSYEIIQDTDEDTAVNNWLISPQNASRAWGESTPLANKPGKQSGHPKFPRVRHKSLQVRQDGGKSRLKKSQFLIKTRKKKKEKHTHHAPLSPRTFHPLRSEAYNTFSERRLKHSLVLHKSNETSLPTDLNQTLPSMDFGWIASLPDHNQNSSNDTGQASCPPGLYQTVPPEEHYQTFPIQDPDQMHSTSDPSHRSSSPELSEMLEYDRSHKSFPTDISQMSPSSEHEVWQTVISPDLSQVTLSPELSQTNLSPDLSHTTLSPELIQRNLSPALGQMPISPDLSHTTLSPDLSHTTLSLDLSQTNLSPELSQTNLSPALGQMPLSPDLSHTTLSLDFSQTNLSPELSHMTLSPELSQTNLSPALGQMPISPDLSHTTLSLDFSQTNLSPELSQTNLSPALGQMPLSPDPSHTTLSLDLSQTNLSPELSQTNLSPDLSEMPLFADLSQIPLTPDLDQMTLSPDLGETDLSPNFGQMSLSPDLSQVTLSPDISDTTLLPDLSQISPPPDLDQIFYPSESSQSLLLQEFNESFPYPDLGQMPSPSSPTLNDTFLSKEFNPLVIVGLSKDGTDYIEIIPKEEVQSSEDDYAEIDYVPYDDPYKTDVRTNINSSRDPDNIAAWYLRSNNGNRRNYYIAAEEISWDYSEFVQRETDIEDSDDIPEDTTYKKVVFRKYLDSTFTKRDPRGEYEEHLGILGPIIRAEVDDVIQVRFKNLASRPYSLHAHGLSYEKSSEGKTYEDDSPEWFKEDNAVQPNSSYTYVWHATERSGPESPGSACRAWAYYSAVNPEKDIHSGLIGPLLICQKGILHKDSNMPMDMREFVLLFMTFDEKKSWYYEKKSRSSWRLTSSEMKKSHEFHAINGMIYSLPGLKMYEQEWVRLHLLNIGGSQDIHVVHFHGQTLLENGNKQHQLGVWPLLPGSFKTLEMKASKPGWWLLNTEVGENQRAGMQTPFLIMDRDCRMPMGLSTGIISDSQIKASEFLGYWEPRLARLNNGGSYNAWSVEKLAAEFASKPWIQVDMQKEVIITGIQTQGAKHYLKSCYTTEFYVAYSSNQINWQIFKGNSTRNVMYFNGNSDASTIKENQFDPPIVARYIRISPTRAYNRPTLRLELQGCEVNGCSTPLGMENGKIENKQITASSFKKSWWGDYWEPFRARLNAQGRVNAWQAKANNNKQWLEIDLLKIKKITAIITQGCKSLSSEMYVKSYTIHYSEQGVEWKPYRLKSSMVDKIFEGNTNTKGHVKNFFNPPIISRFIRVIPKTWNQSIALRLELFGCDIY

On to `O[C@H](CS)[C@H](O)CS` [DTT, dithiothreitol], for which the activity at 100 µg/mL in test [1] (setting [5]) came to 101%; in test [1] (setting [7]) it was 69%; in test [3] (setting [5]), 129%; in test [3] (setting [7]), 16%; in test [4] (setting [5]), 59%; in test [4] (setting [7]), 6%. Moreover, the activity at 600 µg/mL in test [1] (setting [6]) stood at 33%; in test [3] (setting [6]), 0%; in test [4] (setting [6]) it was 0%. In test [1] (plasma + 0.4 mg reducing agent), the “Coagulation factor F II” value is given as 41 % of control. The “Coagulation factor F V” value is recorded as 94 % of control in test [2] (setting [8]); 90 % of control in test [2] (0.6 mg reducing agent/ml plasma); 90 % of control in test [2] (Table 1 sample D, 0.1 mg DTT/ml plasma); 85 % of control in test [2] (plasma + 0.4 mg reducing agent). Also, in test [3] (plasma + 0.4 mg reducing agent), the “Coagulation factor F IX” value is 8 % of control. Further, the “Coagulation factor F X” value in test [4] (plasma + 0.4 mg reducing agent) is given as 0 % of control.
As to `O=C(O)CCCCC1CCSS1` (centres unmarked) [lipoic acid], the activity at 100 µg/mL in test [1] (setting [5]) is 100%; in test [3] (setting [5]), 58%; in test [4] (setting [5]), 40%. For the same compound, the “Coagulation factor F II” value in test [1] (plasma + 0.2 mg reducing agent) and in test [1] (plasma + 0.4 mg reducing agent) was 103 % of control in each case. In addition, the “Coagulation factor F V” value in test [2] (setting [8]) was 100 % of control; in test [2] (plasma + 0.2 mg reducing agent), 91 % of control; in test [2] (plasma + 0.4 mg reducing agent), 215 % of control. The “Coagulation factor F IX” value was 52 % of control in test [3] (plasma + 0.2 mg reducing agent) and 58 % of control in test [3] (plasma + 0.4 mg reducing agent). For the same compound, the “Coagulation factor F X” value is 26 % of control in test [4] (plasma + 0.2 mg reducing agent) and 32 % of control in test [4] (plasma + 0.4 mg reducing agent).
As for `O[C@H](CS)[C@@H](O)CS` [DTE, dithioerythritol], the activity at 100 µg/mL in test [1] (setting [5]) was 90%; in test [3] (setting [5]), 61%; in test [4] (setting [5]), 56%. For the same compound, the “Coagulation factor F II” value in test [1] (plasma + 0.2 mg reducing agent) is 66 % of control; in test [1] (plasma + 0.4 mg reducing agent), 35 % of control. The “Coagulation factor F V” value in test [2] (setting [8]) is reported as 99 % of control; in test [2] (plasma + 0.2 mg reducing agent), 99 % of control; in test [2] (plasma + 0.4 mg reducing agent), 90 % of control. The results for the “Coagulation factor F IX” value in test [3] (plasma + 0.2 mg reducing agent) and in test [3] (plasma + 0.4 mg reducing agent) were 28 % of control and 19 % of control, respectively. In addition, the “Coagulation factor F X” value in test [4] (plasma + 0.2 mg reducing agent) is on record as 11 % of control; in test [4] (plasma + 0.4 mg reducing agent), 2 % of control.
With `OCCS` [mercaptoethanol], the entries for the “Coagulation factor F II” value in test [1] (plasma + 0.2 mg reducing agent) and in test [1] (plasma + 0.4 mg reducing agent) were 89 % of control and 74 % of control, respectively. For the same compound, the “Coagulation factor F V” value in test [2] (plasma + 0.2 mg reducing agent) was 61 % of control; in test [2] (plasma + 0.4 mg reducing agent) it was 84 % of control. The “Coagulation factor F IX” value in test [3] (plasma + 0.2 mg reducing agent) is 33 % of control; in test [3] (plasma + 0.4 mg reducing agent), 35 % of control. Further, the “Coagulation factor F X” value in test [4] (plasma + 0.2 mg reducing agent) is 75 % of control; in test [4] (plasma + 0.4 mg reducing agent), 37 % of control.
`[BH4-].[K+]` [KBH4, potassium borohydride]: the “Coagulation factor F II” value in test [1] (setting [9]) was 92 % of control; in test [1] (setting [10]), 96 % of control. Further, the results for the “Coagulation factor F V” value in test [2] (setting [9]) and in test [2] (setting [10]) were 74 % of control and 93 % of control, respectively. For the same compound, the “Coagulation factor F IX” value was 77 % of control in test [3] (setting [9]) and 71 % of control in test [3] (setting [10]). The “Coagulation factor F X” value in test [4] (setting [9]) was 86 % of control; in test [4] (setting [10]), 68 % of control.

These data come from patent US4229435A, “Preparation of blood fraction” (priority 1978, dated 1980).
